Here are results for 2 compounds from patent publication US10969396B2, “In vitro method, use of an agent and collection device for the inhibition of coagulation in blood” (priority 2013, dated 2021).

Counter-ions that a name gives are not always drawn.

The subject of this assay is activated partial thromboplastin time (APTT). Put plainly: activated partial thromboplastin time (APTT) determination. Conditions: Example 1, plasma, N 48. Set-up: species or system human. The procedure:
Tetrahydrofuran-2,3,4,5-tetracarboxylic acid (THTCA) was from TCI, Germany. Pristine blood collection tubes, i.e. tubes as originally provided not containing or respectively not filled or coated with additive, were from KABE Labortechnik GmbH, Germany, denoted KABEVETTE (GR).
Blood was collected from the antecubital vein from volunteers who had previously given their informed consent. […] Tubes were filled with blood completely to the mark (4.9 mL), and for tubes containing anticoagulant the blood was mixed well with the respective anticoagulant by inverting the tubes 4 times immediately after blood collection. Serum samples were treated according to the protocol of the manufacturer and used for biochemical analysis. […] Potassium EDTA plasma was also used for biochemical determinations.
The analyses of metabolites, minerals, and enzymes were performed using the automated analyzers cobas 6000 C and 6000 E. Haemostasis tests and haematologic parameters were measured by STA-R (Diagnostica Stago) analyzer and LH 780 analyzer (Beckman Coulter) respectively.

On to `O=C(O)CC(O)(CC(=O)O)C(=O)O` [CA, Citric acid monohydrate], for which the “APTT Mean” value (listed as GR 15, monohydrate) was 29.94 s.

Take `O=C(O)CC(O)(CC(=O)O)C(=O)O` [citrate (BD), sodium citrate]: the “APTT Mean” value was 29.71 s.
